Data set [1] concerns the target T1, Protein-glutamine gamma-glutamyltransferase (Homo sapiens, UniProt P21980).
T1 sequence (P21980 whole entry): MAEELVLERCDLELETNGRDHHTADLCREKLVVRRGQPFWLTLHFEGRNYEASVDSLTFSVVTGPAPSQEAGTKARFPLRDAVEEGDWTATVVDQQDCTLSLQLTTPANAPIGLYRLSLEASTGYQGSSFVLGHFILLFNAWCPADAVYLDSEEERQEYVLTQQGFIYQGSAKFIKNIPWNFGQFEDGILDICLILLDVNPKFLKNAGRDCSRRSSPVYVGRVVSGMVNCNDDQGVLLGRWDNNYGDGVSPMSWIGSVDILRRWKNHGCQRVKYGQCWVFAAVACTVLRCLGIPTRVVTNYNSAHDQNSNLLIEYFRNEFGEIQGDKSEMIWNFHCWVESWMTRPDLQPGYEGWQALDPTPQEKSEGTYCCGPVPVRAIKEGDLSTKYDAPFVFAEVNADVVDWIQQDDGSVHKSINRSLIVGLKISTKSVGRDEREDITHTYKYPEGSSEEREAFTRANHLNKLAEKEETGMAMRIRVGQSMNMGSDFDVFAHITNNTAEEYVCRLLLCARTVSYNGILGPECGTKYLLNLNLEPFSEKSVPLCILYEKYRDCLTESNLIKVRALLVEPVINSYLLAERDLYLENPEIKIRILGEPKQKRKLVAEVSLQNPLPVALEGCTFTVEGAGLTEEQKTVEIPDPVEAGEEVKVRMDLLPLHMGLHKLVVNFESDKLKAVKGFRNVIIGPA
Description: Irreversible inhibition of human TGase 2 using Z-Glu(HMC)-Gly-OH as substrate measured at 20 secs interval over 900 secs by fluorimetric assay.

The nature of data set [2]: n-octanol-phosphate buffer partition coefficient, log D of compound at pH 7.4 by 19F NMR analysis. It counts as physicochemical.
Data set [3] is described as follows: Membrane retention, RM of the compound. Type of data set: physicochemical.
Data set [4] is described as follows: Chromatographic hydrophobicity index in immobilized artificial membrane at pH 7.4 by HPLC method. Type of data set: ADME, cell membranes.
A short description of data set [5]: Metabolic stability in mouse liver microsomes assessed as parent compound remaining at 100 uM measured after 60 mins by HPLC-UV analysis. Type of data set: ADME, microsome. To be noted: for remaining at 1 h, 100 µM: liver microsomes, read-out: Stability; for Stability: microsomes, 1 h, 100 µM. (Liver microsomes are a subcellular fraction often used to study metabolism.)

The nature of a further data set: in vitro. To be noted: PAMPA.
In data set [6] the target is T1, Protein-glutamine gamma-glutamyltransferase. Description: Inhibition of human TGase 2 using R-I-Cad/DMC as substrate preincubated for 5 mins followed by substrate addition measured at 30 secs interval over 900 secs by fluorescence anisotropy assay. Background: Fluorescence polarisation rises when a labelled molecule tumbles more slowly, as on binding a larger partner.

Data set [7] is described as follows: Inhibition of guinea pig TGase 2 using F-Cad/DMC as substrate preincubated for 30 mins followed by substrate addition measured at 30 secs interval over 900 secs by fluorescence anisotropy assay. Set-up: species or system Cavia porcellus.
The target of data set [8] is T2, Protein-glutamine gamma-glutamyltransferase (Homo sapiens) (UniProt P21980).
T2 sequence (whole entry): T1 sequence (P21980 whole entry)
Description: Inhibition of human TGase 2 assessed as enzyme activity factor using R-I-Cad/DMC as substrate at 10 to 240 nM preincubated for 40 mins followed by substrate addition measured at 30 secs interval over 900 secs by fluorescence anisotropy assay. Set-up: scale not given: the % may be the effect or the level left.

Data set [9] concerns the target T2, Protein-glutamine gamma-glutamyltransferase (Homo sapiens). In words: Inhibition of human TGase 2 assessed as enzyme activity factor using Z-Glu(HMC)-Gly-OH as substrate at 5 to 100 nM preincubated for 40 mins followed by substrate addition measured over 300 secs by fluorimetric assay. Set-up: scale not given: the % may be the effect or the level left.
Data set [10] addresses T1, Protein-glutamine gamma-glutamyltransferase. In words: Inhibition of TGase 2 in human A375 cells using R-I-Cad/DMC as substrate preincubated for 5 mins followed by substrate addition measured at 30 secs interval over 900 secs by fluorescence anisotropy assay. It counts as cell-based.
The species entered for another data set is Cavia porcellus. In words: Irreversible inhibition of guinea pig TGase 2 using F-Cad/DMC as substrate at 30 uM preincubated for 30 mins followed by 1:100 dilution of compound-enzyme pre-incubated mixture at 30 secs interval over 900 secs by fluorescence anisotropy assay.
Data set [11] deals with T1, Protein-glutamine gamma-glutamyltransferase. In words: Reversible inhibition of human TGase 2 using Z-Glu(HMC)-Gly-OH as substrate measured at 20 secs interval over 900 secs by fluorimetric assay.
Data set [12] is described as follows: Thermodynamic solubility of the compound in 0.01 M phosphate buffer at pH 7.4 at 22 degC after 26 hrs by UPLC-DAD-MS analysis. It counts as physicochemical. To be noted: read-out: Therm_solubility.
Data set [13] is filed under the species Homo sapiens. Description: Selectivity index, ratio of Kinact/Ki for human TGase 2 to Kinact/Ki for human TGase 1.
For data set [14], the species on record is Homo sapiens. In words: Selectivity index, ratio of Kinact/Ki for human TGase 2 to Kinact/Ki for human TGase 3.
Data set [15] is filed under the species Homo sapiens. In words: Selectivity index, ratio of Kinact/Ki for human TGase 2 to Kinact/Ki for human TGase 6.
The species entered for data set [16] is Homo sapiens. In words: Selectivity index, ratio of Kinact/Ki for human TGase 2 to Kinact/Ki for human Factor 13a.
A short description of data set [17]: Drug metabolism in mouse liver microsomes assessed as metabolic transformation at pyridylpiperazine moiety at 100 uM measured after 60 mins by EPI-mass spectroscopy. To be noted: 1 h. It counts as ADME, microsome.
Data set [18] in a line: Thermodynamic solubility of the compound in 0.01 M phosphate buffer at pH 7.4 at 22 degC after 39 hrs by UPLC-DAD-MS analysis. It counts as physicochemical. To be noted: read-out: Therm_solubility.
In data set [19] the target is T2, Protein-glutamine gamma-glutamyltransferase (Homo sapiens). Description: Irreversible inhibition of human TGase 2 using Z-Glu(HMC)-Gly-OH as substrate up to 25 uM measured at 20 secs interval over 900 secs by fluorimetric assay.

pIC50, pKi: −log10 of the molar value. Values after ≈ are worked out from the molar mass of the structure shown. Active and inactive are the calls of the source. The calls are words filed in the database; no cut-off is given here.

Description for in vitro: Effective permeability of the compound by PAMPA assay

Usually pKi stands for the negative decadic logarithm of the Ki, by convention in mol/L. The term logD denotes the decadic logarithm of the distribution of all forms, ionised or not, between an organic phase and buffer at a given pH. Broadly, the Papp is the rate of passage across a membrane or cell layer, normalised by area and donor concentration. `C=CC(=O)NCCCC[C@H](NC(=O)Cc1ccccc1)C(=O)N1CCN(C(=O)c2ccc(F)cc2)CC1` showed a negative logarithm of the Ki (pKi) in [1] of 4.87. Further, the pH-dependent lipophilicity (logD) in [2] was determined as 1.6. Besides, the Rm in data set [3] is -3%. The compound further came in with a CHI in [4] of 25. Also, the remaining at 1 h, 100 µM in data set [5] worked out at 85%. The same compound returned a Papp in “in vitro” of 3.05 ×10⁻⁶ cm/s.
By pIC50 is commonly meant −log10 of the IC50, conventionally taken in molar units. `C=CC(=O)NCCCC[C@H](NC(=O)Cc1ccccc1)C(=O)N1CCN(c2ccc([N+](=O)[O-])nc2)CC1` had a negative-log Ki (pKi) in data set [1] of 5.61. In addition, the pIC50 in data set [6] is 7.05; in data set [7], 6.82. The Activity in data set [8] turned out to be 80%; in data set [9], 74.4%.
With `C=CC(=O)NCCCC[C@H](NC(=O)Cc1ccccc1)C(=O)N1CCN(c2cccc(C)n2)CC1`, the pIC50 in data set [6] was 6.51; in data set [7] it was 6.57; in [10], 6.10. Moreover, the Rm in data set [3] was -1%. The CHI in data set [4] was found to be 29.4. For the same compound, the inhibition result in the data set filed under Cavia porcellus is “Active”. Further, in data set [5], the remaining at 1 h, 100 µM was 62%. For the same compound, the pKi in [11] was 5.24. The compound further registered an apparent permeability coefficient (Papp) in the data set “in vitro” of 8.77 ×10⁻⁶ cm/s.
Turning to `C=CC(=O)NCCCC[C@H](NC(=O)Cc1ccccc1)C(=O)N1CCN(c2cccc(F)n2)CC1`, the figures for the negative logarithm of the IC50 (pIC50) in data set [6], in [7] and in data set [10] were 6.96, 6.70 and 5.96, respectively. Moreover, the logD in data set [2] stood at 2.1. Moreover, the Rm in data set [3] came to 14%. Moreover, the CHI in data set [4] is given as 31.8. For the same compound, the solubility thermodynamic at 26 h in data set [12] was determined as 645 µM (≈ 311 µg/mL). Moreover, the Stability entry in data set [5] is “Unstable”. The pKi in [11] is 5.20. Also, the Selectivity Index in the data set listed under Homo sapiens [13], in the data set filed under Homo sapiens [14], in the data set listed under Homo sapiens [15] and in the data set filed under Homo sapiens [16] was 275 to 1920 each time. Also, the Drug metabolism entry in data set [17] is on record as “Metabolite_Detected”. Further, in “in vitro”, the Papp came out at 13.3 ×10⁻⁶ cm/s.
In the case of `C=CC(=O)NCCCC[C@H](NC(=O)Cc1ccccc1)C(=O)N1CCN(c2cccc([N+](=O)[O-])n2)CC1`, the pIC50 in data set [6] was 7.00; in data set [7], 6.92; in [10] it was 6.40. Further, the Rm in data set [3] amounted to 10%. The compound further displayed a CHI in data set [4] of 30.7. In addition, the solubility thermodynamic at 39 h in data set [18] stood at 452 µM (≈ 230 µg/mL). For the same compound, the inhibition entry in [19] was “Active”. Further, in data set [11], the pKi was 5.65. Besides, the Selectivity Index in the data set filed under Homo sapiens [13], in the data set filed under Homo sapiens [14], in the data set filed under Homo sapiens [15] and in the data set listed under Homo sapiens [16] was 275 to 1920 each time. The compound also came in with a Papp in the data set “in vitro” of 9.16 ×10⁻⁶ cm/s.
With `C=CC(=O)NCCCC[C@H](NC(=O)c1ccc(F)cc1)C(=O)N1CCN(c2ccc([N+](=O)[O-])nc2)CC1`, the negative logarithm of the Ki (pKi) in data set [1] is 4.85. In [2], this compound showed a logD of 2.21. In data set [3], the Rm was 12%. The CHI in data set [4] came to 28.5. Besides, in [5], the Stability entry is on record as “Stable”. Further, the Papp in “in vitro” was determined as 4.08 ×10⁻⁶ cm/s.

(Values after ChEMBL document CHEMBL4219231, “Nε-Acryloyllysine Piperazides as Irreversible Inhibitors of Transglutaminase 2: Synthesis, Structure-Activity Relationships, and Pharmacokinetic Profiling” (J Med Chem, 2018).)
